Test results as given in US11622966B2 (A2A Pharmaceuticals, Inc., priority 2018, dated 2023).
Entries after “also recorded” stand apart in the source; their conditions may differ.

How the values were obtained:
[1] = Plasma protein binding by equilibrium dialysis; type: in vitro ADME; settings: human, 37° C.
[2] = Stability in human liver microsomes; type: in vitro ADME; settings: HLM
[3] = test system: JIMT-1 cells; test: Western blot of mitotic arrest, DNA damage and apoptosis markers; type: cell-based, human; settings: 24 hours, Western blot (FIG. 6C)
[4] = test system: NCI-60 human cancer cell line panel; test: NCI-60 cancer cell line panel five-dose screening (SRB); type: cell-based; settings: read-out: GI50 (50% growth inhibition), NCI-60 five-dose screen, ~90% / almost all cell lines
Procedure: Detailed screening methodology can be accessed from the National Cancer Institute webpage. Briefly, 24 h after cell seeding into 96-well plates, they were treated with 5-log M concentration range of the compound for 2 days. Cytotoxicity was assessed using sulphorhodamine B (SRB) assay.

[5] = test system: JIMT-1 xenografts; test: Breast cancer xenograft experiments (JIMT-1 in mammary fat pad); type: in vivo, female athymic nude mice
Procedure: Six-to-eight-week-old female athymic nude mice were housed with a temperature-controlled and 12-hour light/12-hour dark cycle environment. This study was carried out in accordance with Institutional Animal Care and Use Committee of Bilkent University and performed according to the institution's guidelines and animal research principles. For in vivo tumor growth, 4×10^6 JIMT-1 cells were prepared in 150 μl of 1:1 DMEM and Matrigel (Corning, N.Y., USA), v/v) and injected into the mammary fat pads (MFP) of female nude mice. Mouse weight and tumor volume were measure daily using calipers. Tumor volumes were calculated as length×width×0.5. Once the tumor volume had reached about 100 mm^3, xenografts were randomized into groups.

[6] = test system: JIMT-1, MDA-MB-436, MDA-MB-157 and BT-474 T-DM1R cell lines; test: Cell viability assay (Cell Titer Glo), breast cancer cell line panel; type: cell-based, human; settings: all cell lines tested, 72 hours, Cell Titer Glo (FIG. 6A)
[7] = Kinetic solubility in sodium phosphate buffer; type: physicochemical; settings: sodium phosphate buffer pH 7.4, 25° C., 2 h
[8] = test system: normal breast epithelial cells, MCF-12A; test: Cell viability assay, normal breast cell line; type: cell-based
Procedure: Next, the specificity of BO-264 towards cancer cell lines over normal cells were tested.
(§1) KHS101 and SPL-B were dissolved in 100% DMSO to yield a stock concentration of 50 mM. Newly synthesized molecules were dissolved in 100% DMSO to yield a stock concentration of 10 mM. For cell viability assay, JIMT-1 (3×10^3 cells/well), BT-474 T-DM1R (6×10^3 cells/well), MDA-MB-436 (4×10^3 cells/well), MDA-MB-157 (3×10^3 cells/well) and MCF-12A (5×10^3 cells/well) cells were seeded, and 24 hours after cell seeding inhibitor treatments were performed at different concentrations. Cell viability was measured 72 hours after treatment with Cell Titer Glo assay as recommended by the manufacturer.

[9] = Stability in mouse liver microsomes; type: in vitro ADME; settings: MLM
[10] = test system: JIMT-1 breast cancer cell lines; test: Cell viability assay (Cell Titer Glo), JIMT-1; type: cell-based; settings: Homo sapiens, JIMT-1 breast cancer cells, 72 hours, read-out: IC50, proliferation / cell viability of JIMT-1
Procedure: As mentioned before, none of the available TACC3 inhibitors, such as KHS101 and SPL-B has yet advanced to the clinical studies. […] For this purpose, it was performed in-house screening of a series of small molecules by testing their anti-proliferative effects in breast cancer cells in which TACC3 is aberrantly expressed (Ma et al., 2003; Song et al., 2018). Specifically, JIMT-1 cell line was chosen for screening the effect of compounds in cell viability due to its high TACC3 protein level compared to other tested breast cancer cell lines as well as its in vivo tumorigenicity (Saatci et al., 2018; Tanner et al., 2004) (will be discussed in FIGS. 8 and 9-10, respectively).
as §1

[11] = test system: JIMT-1 cells; test: Colony formation assay; type: cell-based, human; settings: 12 days, versus other two inhibitors at the same doses (FIG. 6B)
Procedure: For monolayer culture, single-cell suspensions of JIMT-1 cells (3×10^3 cells/well) were plated in a 12-well plate. […] For both experimental setups, the media were refreshed every 4 days, and cells were incubated for 12 days. Cells were then fixed with 2% paraformaldehyde for 15 min and stained with 1% crystal violet (Merck, Darmstadt, Germany) for 15 min at RT. Surviving colonies (composed of at least 50 cells) were counted with ImageJ software (NIH).

[12] = target: T1, Purified TACC3 recombinant protein (Homo sapiens, UniProt Q9Y6A5); test: Isothermal titration calorimetry (ITC); type: binding; settings: 25° C.
T1 construct: purchased Origene TP310754
Procedure: Titrations were carried out using Microcal 200 equipment (GE Healthcare, Austria) at 25° C. For each titration, 10 injections were made with 6 min spacing. The reference power was set at 2 μcal/sec, and the sample cell was continuously stirred at 500 rpm. In order to assess the binding efficiency between drug and protein, background data obtained by protein injected into buffer alone was subtracted from the experimental isotherms. The data was analyzed using Origin 7 Software provided along with the ITC200, and binding parameters such as association constant (Ka), number of binding sites (N) and enthalpy (ΔH) were calculated.

[13] = target: T2, TACC3 (Homo sapiens, UniProt Q9Y6A5); test: Target engagement assay (drug-target stabilization with increased temperature); type: binding; settings: JIMT-1 cells
T2 construct: endogenous in cells; host or cells: JIMT-1

[14] = test system: glioblastoma (GBM) xenografts; settings: Polson et al., 2018; cited from earlier work
[15] = 5 mg/kg (oral) every two days for 30 days (FIG. 9)

COc1ccc(-c2cc(Nc3ccnc(N4CCOCC4)n3)on2)cc1 [BO-264, 3-(4-methoxyphenyl)-N-(2-morpholinopyrimidin-4-yl)isoxazol-5-amine]
fraction unbound [1]: 0.0113 | stability in human liver microsomes [2]: low stability | induction of mitotic arrest, DNA damage and apoptosis markers [3]: at lower doses compared to other two TACC3 inhibitors; also recorded: in a dose-dependent manner | GI50 [4]: < 1000 nM | body weight of mice ([5]; 2 mg/kg (oral or i.v) or 5 mg/kg (oral) every two days for 30 days (FIG. 10B)): did not have any negative effect | tumor growth rate compared with control group ([5]; 2 mg/kg i.v every two days for 30 days (FIG. 10A)): decreased | tumor growth rate compared with control group ([5]; 2 mg/kg oral every two days for 30 days (FIG. 10A)): decreased | body weight of mice [5, 15]: no negative effects | tumor growth compared to SPL-B [5, 15]: significant reduction of tumor growth | tumor growth rate compared with control group ([5]; 5 mg/kg (oral) every two days for 30 days (FIG. 10A)): the most significant effect on tumor growth | tumor growth compared to vehicle-treated mice ([5]; 25 mg/kg oral for 23 days (FIG. 11A)): very significant reduction of tumor growth | tumor weights compared to vehicle group ([5]; 25 mg/kg oral for 23 days (FIG. 11B)): significantly lower | mice weight / tolerability ([5]; 25 mg/kg oral for 23 days (FIG. 11C)): well tolerated | IC50 values compared with KHS101 and SPL-B [6]: significantly lower IC50 values than the two available TACC3 inhibitors | solubility [7]: low solubility | inhibition at 10 µM ([8]; Homo sapiens, MCF-12A, 72 h, read-out: growth inhibition of MCF-12A cells): < 50% | effect on normal breast cell line ([8]; normal breast cell line): minor effects | stability in mouse liver microsomes [9]: low stability | IC50 [10]: 232 nM | average colony number of JIMT-1 cells [11]: significantly lower | N (number of binding sites) [12]: 0.704 | ΔH [12]: 49290 kcal/mol | ΔS [12]: 1.65E5 cal/mol/deg | K (association constant) ([12]; titration of TACC3 into BO-264): 6.23E8 | TACC3-BO-264 binding [13]: validated

CC(C)CNc1ccnc(NCc2csc(-c3ccccc3)n2)n1 [KHS101, reference compound]
induction of mitotic arrest, DNA damage and apoptosis markers [3]: at considerably higher doses; also recorded: only observed at very high doses | tumor growth of glioblastoma (GBM) xenografts [14]: suppressed
